# Measured values from US6828327B2, “Macroheterocylic compounds useful as kinase inhibitors” (Ortho-McNeil Pharmaceutical, Inc., priority 2000, dated 2004).
# Experiments:
# [1] = target: T1, CDK1 (Homo sapiens, UniProt P06493); experiment: Biotinylated Peptide Substrate Assay, CDK1; type: biochemical; details: read-out: CDK1 Kinase Assay (IC50 uM)
# T1 construct: purchased New England Biolabs, Beverly, Mass; 6020; host or cells: insect cells
# Protocol: (§1) Assays to test inhibition of a compound for other kinases were preformed using methods that measure the amount of phosphorylation of a biotinylated peptide substrate. Biotinylated peptide substrates were selected from the literature as appropriate for the enzyme being evaluated.
# (§2) A kinase reaction mix was prepared in 50 mM Tris-HCl pH=8, 10 mM MgCl2, 0.1 mM Na3VO4, 1 mM DTT, 10 μM ATP, 0.25-1 μM biotinylated peptide substrate, 0.2-0.8 μCuries per well ^33P-γ-ATP (2000-3000 Ci/mmol). Assay conditions vary slightly for each protein kinase, for example, insulin receptor kinase requires 10 mM MnCl2 for activity and Calmodulin-dependent protein kinase requires calmodulin and 10 mM CaCl2. The reaction mixture was dispensed into the wells of a streptavidin coated Flashplate and 1 μL drug stock in 100% DMSO was added to a 100 μL reaction volume resulting in a final concentration of 1% DMSO in the reaction. Enzyme was diluted in 50 mM Tris-HCl pH=8.0, 0.1% BSA and added to each well. The reaction was incubated for one hour at 30° C. in the presence of compound. After one hour the reaction mix was aspirated from the plate and the plate was washed with PBS containing 100 mM EDTA. The plate was read on a scintillation counter to determine ^33P-γ-ATP incorporated into the immobilized peptide. Test compounds were assayed in duplicate at 8 concentrations (100 uM, 10 uM, 1 uM, 100 nM, 10 nM, 1 nM, 100 pM, 10 pM). A maximum and minimum signal for the assay was determined on each plate.
# (§3) The IC50 was calculated from the dose response curve of the percent inhibition of the maximum signal in the assay according to the formula:
# (§4) % Inhibition=((MS−BS)/(TCS−BS))×100%
# (§5) where MS=Maximum Signal, BS=Background Signal, TCS=Test Compound Signal. The percent inhibition was graphed against the log concentration of the test compound. Known inhibitor compounds as appropriate references for the kinase being assayed were also included on each plate.
# (§6) VEGF-R (vascular endothelial growth factor receptor-2) is a fusion protein containing a polyhistidine tag at the N-terminus followed by amino acids 786-1343 of the rat VEGF-R2 kinase domain (GenBank Accession #U93306). Protein Kinase A is the catalytic subunit of cAMP dependent protein kinase-A purified from bovine heart (Upstate Biotech, Lake Placid, N.Y., Cat#14-114). CDK1 (cyclin dependent kinase 1) is isolated from insect cells expressing both the human CDK1 catalytic subunit and its positive regulatory subunit cyclin B (New England Biolabs, Beverly, Mass., Cat. #6020). Casein Kinase-1 is a protein truncation at amino acid 318 of the C-terminal portion of the rat CK1 delta isoform produced in E.coli (New England Biolabs, Beverly, Mass., Cat. #6030). […]
# [2] = target: T2, GSK 3-β (Oryctolagus cuniculus, UniProt G1T8E2); experiment: Glycogen Synthase Kinase 3-β Assay; type: biochemical, rabbit; details: inhibition value, recombinant rabbit GSK 3-β, PPI-2 substrate
# T2 construct: purchased New England Biolabs, Beverly Mass
# Protocol: The inhibitory activity of a compound against Glycogen Synthase Kinase 3-β (GSK 3-β) activity was assessed using a recombinant rabbit GSK 3-β according to the procedure below.
# The mixture was reacted for 90 minutes at 30° C. to allow phosphorylation of the PPI-2 protein and then the protein in the reaction was precipitated using 10% trichloroacetic acid (TCA). The precipitated protein was collected on filter plates (MultiScreen-DV, Millipore, Bedford Mass.), which were subsequently washed. Finally, the radioactivity was quantified using a TopCount Scintillation Counter (Packard, Meridian Conn.). […] Staurosporine or Valproate (both available from several commercial sources), known inhibitors of GSK-3-β, were used as a positive control for screening.
# [3] = target: T3, PKC-βII (Homo sapiens, UniProt P05771); experiment: Protein Kinase C Scintillation Proximity Assay (SPA), PKC-βII; type: biochemical; details: inhibition value, recombinant human isozyme, 1 μM ATP
# T3 construct: purchased PanVera, Madison Wis; host or cells: baculovirus expression vector
# Protocol: The binding activity of a compound for Protein Kinase C (PKC) was assessed using a homogeneous Scintillation Proximity Assay according to the procedure below.
# The different human PKC isozymes (were obtained from PanVera, Madison Wis. and had been prepared as recombinant enzymes produced from a baculovirus expression vector) were added to a reaction mixture containing a test compound, 20 mM HEPES (pH 7.4), 100 μM CaCl2, 10 mM MgCl2, 100 μg/mL phosphatidylserine, 20 μg/mL diacylglycerol, 1 μM ATP, 0.8 μCi (^33P)ATP, and 5 μg/mL biotinylated substrate peptide (Jing Zhao et al., J. Bio. Chem., 1998, 273, 23072). The reaction was incubated for 15 min at 30° C. Reactions were terminated by the addition of streptavidin-coated SPA beads (Amersham) in a solution containing 1 mM EGTA, 10 mM EDTA and 100 μM ATP. Beads were allowed to settle overnight and the plates read in a Wallac MICROBETA scintillation counter (PerkinElmer Life sciences, Wellesley, Mass.).
# Values for inhibition of various PKC isozymes and GSK 3-β by certain compounds of the invention tested in the PKC SPA and GSK 3-β assays are shown in Table 1.
# [4] = target: T4, Insulin-R kinase (Homo sapiens, UniProt P06213); experiment: Biotinylated Peptide Substrate Assay, Insulin-R kinase; type: biochemical
# T4 construct: consists of residues 941-1313 of the cytoplasmic domain of the beta-subunit of the human insulin receptor; purchased BIOMOL, Plymouth Meeting, Pa; SE-195
# Protocol: as §1, §2, §3, §4, §5, §6
# T1 sequence (P06493 whole entry): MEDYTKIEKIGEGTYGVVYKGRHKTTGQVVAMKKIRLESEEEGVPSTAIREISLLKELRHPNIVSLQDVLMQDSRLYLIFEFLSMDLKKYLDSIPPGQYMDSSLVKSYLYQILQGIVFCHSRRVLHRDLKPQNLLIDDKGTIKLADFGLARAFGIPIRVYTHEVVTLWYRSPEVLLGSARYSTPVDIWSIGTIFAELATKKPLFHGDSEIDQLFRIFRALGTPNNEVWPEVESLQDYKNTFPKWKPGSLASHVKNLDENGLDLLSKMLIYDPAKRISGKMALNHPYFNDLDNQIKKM
# T1 sequence (P14635 whole entry partner): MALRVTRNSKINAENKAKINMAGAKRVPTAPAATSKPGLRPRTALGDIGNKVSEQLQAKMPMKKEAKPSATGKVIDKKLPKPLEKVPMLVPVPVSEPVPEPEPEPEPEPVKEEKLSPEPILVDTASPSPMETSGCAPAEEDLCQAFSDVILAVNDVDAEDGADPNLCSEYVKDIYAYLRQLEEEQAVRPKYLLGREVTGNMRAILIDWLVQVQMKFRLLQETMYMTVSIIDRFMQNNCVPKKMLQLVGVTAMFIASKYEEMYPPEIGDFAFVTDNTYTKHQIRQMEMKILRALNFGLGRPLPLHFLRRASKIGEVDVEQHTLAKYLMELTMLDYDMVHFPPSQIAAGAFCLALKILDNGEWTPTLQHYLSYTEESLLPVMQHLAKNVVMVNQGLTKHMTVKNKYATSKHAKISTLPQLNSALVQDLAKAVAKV
# T4 sequence (P06213 980-1352): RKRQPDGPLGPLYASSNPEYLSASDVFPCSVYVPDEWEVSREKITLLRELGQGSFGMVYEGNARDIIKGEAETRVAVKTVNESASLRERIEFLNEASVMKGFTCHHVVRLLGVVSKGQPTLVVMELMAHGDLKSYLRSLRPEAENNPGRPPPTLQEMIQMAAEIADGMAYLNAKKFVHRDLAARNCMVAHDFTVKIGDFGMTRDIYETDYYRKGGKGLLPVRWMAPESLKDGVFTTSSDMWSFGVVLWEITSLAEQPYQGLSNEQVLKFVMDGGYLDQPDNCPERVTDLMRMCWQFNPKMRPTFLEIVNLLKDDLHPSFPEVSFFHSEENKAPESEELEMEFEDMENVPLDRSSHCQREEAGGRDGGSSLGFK
# T2 sequence (G1T8E2 1-432): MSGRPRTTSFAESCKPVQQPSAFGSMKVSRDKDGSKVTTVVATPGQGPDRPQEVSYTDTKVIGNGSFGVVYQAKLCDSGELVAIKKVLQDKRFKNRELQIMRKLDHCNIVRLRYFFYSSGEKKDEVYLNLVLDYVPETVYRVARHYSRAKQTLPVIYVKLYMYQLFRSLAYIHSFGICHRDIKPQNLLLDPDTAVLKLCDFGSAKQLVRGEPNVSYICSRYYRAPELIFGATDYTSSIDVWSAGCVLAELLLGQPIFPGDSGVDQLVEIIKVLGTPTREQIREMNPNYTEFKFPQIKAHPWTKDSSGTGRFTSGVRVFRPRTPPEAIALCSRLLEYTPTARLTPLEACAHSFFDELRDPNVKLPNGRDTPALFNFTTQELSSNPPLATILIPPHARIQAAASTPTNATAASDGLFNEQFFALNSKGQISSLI
# T3 sequence (P05771 1-673 isoform P05771-2): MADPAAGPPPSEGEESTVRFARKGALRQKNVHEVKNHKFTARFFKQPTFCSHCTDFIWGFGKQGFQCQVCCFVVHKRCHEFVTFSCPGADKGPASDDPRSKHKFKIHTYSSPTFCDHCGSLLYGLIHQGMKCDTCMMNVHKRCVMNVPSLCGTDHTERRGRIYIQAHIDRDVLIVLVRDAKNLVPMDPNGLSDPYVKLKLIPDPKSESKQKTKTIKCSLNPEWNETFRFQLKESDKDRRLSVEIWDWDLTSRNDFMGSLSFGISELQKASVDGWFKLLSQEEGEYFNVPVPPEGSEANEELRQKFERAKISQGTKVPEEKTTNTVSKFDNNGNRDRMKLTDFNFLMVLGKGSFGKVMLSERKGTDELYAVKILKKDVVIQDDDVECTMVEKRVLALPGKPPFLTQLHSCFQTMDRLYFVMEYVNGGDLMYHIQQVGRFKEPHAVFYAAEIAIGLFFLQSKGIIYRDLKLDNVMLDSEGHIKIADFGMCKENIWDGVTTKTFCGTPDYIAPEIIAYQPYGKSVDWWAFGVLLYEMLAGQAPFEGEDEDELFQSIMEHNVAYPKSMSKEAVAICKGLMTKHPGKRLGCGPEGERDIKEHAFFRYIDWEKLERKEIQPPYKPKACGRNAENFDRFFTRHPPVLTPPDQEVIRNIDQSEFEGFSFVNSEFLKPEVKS
IC50 [1],IC50 [2],IC50 [3],IC50 [4],SMILES
0.457 µM,15 nM,72 nM,> 10 µM,O=C1NC(=O)C2=C1c1cn(c3ccccc13)CCOCCOCCOCCn1cc2c2cccnc21 [Cpd 11]
> 10 µM,27 nM,2410 nM,> 10 µM,O=C1NC(=O)C2=C1c1cn(c3ncccc13)CCOCCOCCOCCn1cc2c2cccnc21 [Cpd 1]
> 10 µM,32 nM,> 100000 nM,> 10 µM,O=C1NC(=O)C2=C1c1cn(c3ncccc13)CCOCCOCCOCCOCCn1cc2c2cccnc21 [Cpd 2]
0.422 µM,128 nM,519 nM,> 10 µM,O=C1NC(=O)C2=C1c1cn(c3ccccc13)CCOCCOCCn1cc2c2cccnc21 [Cpd 10]
